Assay results published in PubChem BioAssay AID330 (DTP/NCI, 2004).
“And” between values parts separate entries of the source, which are not always exact repeats. Identical values can stand only once. Toxic doses and inconclusive results are not listed. How the source made its calls: active means survival T/C of 150% or more; inactive means T/C below 125% in these data. Square brackets hold non-standard residues; d marks the D form. Peptide text beside a SMILES is read from it. * marks the point of attachment. Nle = CCCC[CH](N)C(=O)O; Cbz = O=C(OCc1ccccc1)*

Tested on: P388 leukemia ip, CD2F1 mice, survival T/C
Experiment: NCI In Vivo Anticancer Drug Screen. Data for tumor model P388 Leukemia (intraperitoneal) in CD2F1 (CDF1) mice
Details: endpoint: median survival time, higher = longer survival
How it was run: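 Mice carrying the transplanted tumor received test compound or vehicle. Survival was recorded in each group, and the value is the treated-group measurement divided by that of the vehicle-treated control group.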

[1] = dose: 12.5 mg/kg/injection, schedule: Q01DX009 (ip), vehicle: saline with Tween-80
[2] = dose: 12.5 mg/kg/injection, schedule: Q01DX009 (ip), vehicle: saline
[3] = dose: 25.0 mg/kg/injection, schedule: Q01DX009 (ip), vehicle: saline with Tween-80
[4] = dose: 25.0 mg/kg/injection, schedule: Q01DX009 (ip), vehicle: saline
[5] = dose: 50.0 mg/kg/injection, schedule: Q01DX009 (ip), vehicle: saline
[6] = dose: 60.0 mg/kg/injection, schedule: Q01DX005 (ip), vehicle: saline with Tween-80
[7] = dose: 120.0 mg/kg/injection, schedule: Q01DX005 (ip), vehicle: saline with Tween-80
[8] = dose: 50.0 mg/kg/injection, schedule: Q01DX005 (ip), vehicle: Klucel (hydroxypropylcellulose) (HPC)
[9] = dose: 100.0 mg/kg/injection, schedule: Q01DX005 (ip), vehicle: Klucel (hydroxypropylcellulose) (HPC)
[10] = dose: 200.0 mg/kg/injection, schedule: Q01DX005 (ip), vehicle: Klucel (hydroxypropylcellulose) (HPC)
[11] = dose: 25.0 mg/kg/injection, schedule: Q01DX009 (ip), vehicle: Klucel (hydroxypropylcellulose) (HPC)
[12] = dose: 50.0 mg/kg/injection, schedule: Q01DX009 (ip), vehicle: Klucel (hydroxypropylcellulose) (HPC)
[13] = dose: 100.0 mg/kg/injection, schedule: Q01DX009 (ip), vehicle: Klucel (hydroxypropylcellulose) (HPC)
[14] = dose: 200.0 mg/kg/injection, schedule: Q01DX009 (ip), vehicle: Klucel (hydroxypropylcellulose) (HPC)
[15] = dose: 240.0 mg/kg/injection, schedule: Q01DX005 (ip), vehicle: saline with Tween-80
[16] = dose: 50.0 mg/kg/injection, schedule: Q01DX009 (ip), vehicle: saline with Tween-80

Measured: T/C

CCCCCC(C[N+]1(C)CCOCC1)C(=O)/C=C/c1ccccc1 (stereo unspecified)
inactive: [1] 96 % of control | [2] 108 % of control | [3] 108 % of control | [4] 108 % of control

CN=NNc1ccc(C)cc1
inactive: dose: 12.5 mg/kg/injection, schedule: Q01DX009 (ip), vehicle: distilled water + Tween-80 96 % of control and 97 % of control | dose: 25.0 mg/kg/injection, schedule: Q01DX009 (ip), vehicle: distilled water + Tween-80 100 % of control | dose: 50.0 mg/kg/injection, schedule: Q01DX009 (ip), vehicle: distilled water + Tween-80 100 % of control and 124 % of control | dose: 100.0 mg/kg/injection, schedule: Q01DX009 (ip), vehicle: distilled water + Tween-80 123 % of control

O=[N+]([O-])c1cccc(C2OCC3(CO2)COC(c2cccc([N+](=O)[O-])c2)OC3)c1 (stereo unspecified)
inactive: [5] 100 % of control | dose: 100.0 mg/kg/injection, schedule: Q01DX009 (ip), vehicle: saline 100 % of control | dose: 200.0 mg/kg/injection, schedule: Q01DX009 (ip), vehicle: saline 101 % of control

CCCCCCNC(=O)C1C(=O)N(CCCCCC)C(=O)/C1=N\N=C(N)N (stereo unspecified)
inactive: [6] 109 % of control | [7] 109 % of control

CCCCC(NC(=O)OCc1ccccc1)C(=O)NC(CCSC)C(=O)O (stereo unspecified) (Cbz-[Nle]-Met-OH; configuration not given here)
inactive: [8] 96 % of control | [9] 111 % of control | [10] 101 % of control

[I][Hg][CH]1CCC2CCCC1O2 (stereo unspecified)
inactive: dose: 12.5 mg/kg/injection, schedule: Q01DX009 (ip), vehicle: Klucel (hydroxypropylcellulose) (HPC) 105 % of control | [11] 102 % of control

COc1ccc2c(c1)CCC1=C2CCP1(C)=S (stereo unspecified)
inactive: [12] 106 % of control | [13] 97 % of control | [14] 88 % of control

COC(=O)C1=C(OC(C)=O)c2ccccc2CS1
inactive: dose: 50.0 mg/kg/injection, schedule: Q01DX001 (ip), vehicle: Klucel (hydroxypropylcellulose) (HPC) 98 % of control | dose: 100.0 mg/kg/injection, schedule: Q01DX001 (ip), vehicle: Klucel (hydroxypropylcellulose) (HPC) 92 % of control | dose: 200.0 mg/kg/injection, schedule: Q01DX001 (ip), vehicle: Klucel (hydroxypropylcellulose) (HPC) 96 % of control

CCOC(=O)N/C=C/C(C)=O
inactive: [6] 98 % of control | [7] 100 % of control | [15] 106 % of control

CNc1ccccc1Sc1cnc(N)nc1C
inactive: dose: 60.0 mg/kg/injection, schedule: Q01DX005 (ip), vehicle: Klucel (hydroxypropylcellulose) (HPC) 94 % of control | dose: 120.0 mg/kg/injection, schedule: Q01DX005 (ip), vehicle: Klucel (hydroxypropylcellulose) (HPC) 91 % of control | dose: 240.0 mg/kg/injection, schedule: Q01DX005 (ip), vehicle: Klucel (hydroxypropylcellulose) (HPC) 90 % of control

COC1OC(C)(C(OC)OC)CCC1C (stereo unspecified)
inactive: dose: 50.0 mg/kg/injection, schedule: Q01DX005 (ip), vehicle: saline with Tween-80 99 % of control | dose: 100.0 mg/kg/injection, schedule: Q01DX005 (ip), vehicle: saline with Tween-80 94 % of control | dose: 200.0 mg/kg/injection, schedule: Q01DX005 (ip), vehicle: saline with Tween-80 92 % of control

Cc1cc2nc(CC(=O)c3ccncc3)c(CC(=O)c3ccncc3)nc2cc1C
inactive: [6] 106 % of control | [7] 91 % of control | [15] 91 % of control

COc1cc2oc(=O)ccc2cc1[C@@H]1OC(=O)C2(C)O[C@@H]12 (stereo partly specified)
inactive: dose: 2.5 mg/kg/injection, schedule: Q01DX009 (ip), vehicle: saline 112 % of control | dose: 5.0 mg/kg/injection, schedule: Q01DX009 (ip), vehicle: saline 93 % of control | dose: 6.0 mg/kg/injection, schedule: Q01DX009 (ip), vehicle: Klucel (hydroxypropylcellulose) (HPC) 107 % of control | dose: 6.0 mg/kg/injection, schedule: Q01DX009 (ip), vehicle: saline with Tween-80 110 % of control | dose: 8.0 mg/kg/injection, schedule: Q01DX009 (ip), vehicle: Klucel (hydroxypropylcellulose) (HPC) 114 % of control | dose: 8.0 mg/kg/injection, schedule: Q01DX009 (ip), vehicle: saline with Tween-80 117 % of control | dose: 10.0 mg/kg/injection, schedule: Q01DX009 (ip), vehicle: Klucel (hydroxypropylcellulose) (HPC) 105 % of control | dose: 10.0 mg/kg/injection, schedule: Q01DX009 (ip), vehicle: saline with Tween-80 110 % of control | dose: 12.0 mg/kg/injection, schedule: Q01DX009 (ip), vehicle: Klucel (hydroxypropylcellulose) (HPC) 103 % of control | dose: 12.0 mg/kg/injection, schedule: Q01DX009 (ip), vehicle: saline with Tween-80 110 % of control

Cn1c(=O)oc2cc(N)c(Br)cc21
inactive: [8] 90 % of control | [9] 92 % of control | [10] 94 % of control

COC(=O)CC1CSCC1=O (stereo unspecified)
inactive: [6] 105 % of control | [7] 100 % of control | [15] 105 % of control

Nc1ncnc2c1ncn2C1OC(CO)C(O)C1N (stereo unspecified)
inactive: dose: 50.0 mg/kg/injection, schedule: Q04DX002 (ip), vehicle: saline 106 % of control | dose: 100.0 mg/kg/injection, schedule: Q04DX002 (ip), vehicle: saline 110 % of control | dose: 200.0 mg/kg/injection, schedule: Q04DX002 (ip), vehicle: saline 112 % of control

O=[N+]([O-])c1ccc(O)c(O)c1
inactive: [2] 100 % of control | [4] 108 % of control | [5] 98 % of control

CC1(C)C(=O)C(O)=Cc2ccccc21
inactive: [8] 109 % of control | [9] 107 % of control | [10] 101 % of control

O=C1CC2OCCC3CN4CCC56c7ccccc7N1C5C2C3CC46 (stereo unspecified)
inactive: dose: 7.5 mg/kg/injection, schedule: Q01DX005 (ip), vehicle: Klucel (hydroxypropylcellulose) (HPC) 101 % of control | dose: 15.0 mg/kg/injection, schedule: Q01DX005 (ip), vehicle: Klucel (hydroxypropylcellulose) (HPC) 98 % of control | dose: 30.0 mg/kg/injection, schedule: Q01DX005 (ip), vehicle: Klucel (hydroxypropylcellulose) (HPC) 98 % of control

O=C(O)c1cc(C(=O)CCCC(=O)c2cc(C(=O)O)c(O)c3ccccc23)c2ccccc2c1O
inactive: [1] 100 % of control | [3] 100 % of control | [16] 87 % of control | dose: 100.0 mg/kg/injection, schedule: Q01DX009 (ip), vehicle: saline with Tween-80 93 % of control

CC(=O)N(C)N(Cc1ccc(C#N)cc1)C(C)=O
inactive: [11] 101 % of control | [12] 98 % of control | [13] 99 % of control | [14] 108 % of control | dose: 400.0 mg/kg/injection, schedule: Q01DX009 (ip), vehicle: Klucel (hydroxypropylcellulose) (HPC) 98 % of control

CN(C)c1ccc(/C=C\C(=O)c2ccc(C(=O)/C=C/c3ccc(N(C)C)cc3)cc2)cc1
inactive: [1] 99 % of control | [3] 96 % of control | [16] 90 % of control
